These compounds were tested on T1R1/T1R3 umami receptor (assay: In vitro screening of amino acids for ability to activate the T1R1/T1R3 receptor in the presence of 0.2 mM IMP). Conditions: FIG. 10.
Format: cell-based

**Q.** Which “activation of the T1R1/T1R3 umami receptor” value (shortened to “activation”) does the source give for N[C@@H](CCC(=O)O)C(=O)O [glutamic acid] here?
**A.** do not activate

**Q.** Which “activation” value does the source give for N[C@@H](CC(=O)O)C(=O)O [aspartic acid] here?
**A.** do not activate

**Q.** NCCC[C@H](N)C(=O)O [ornithine] was tested. Which “activation” value did it give?
**A.** do not activate

**Q.** O=C(O)[C@@H]1CCCN1 [proline] was tested. Which “activation” value did it give?
**A.** do not activate

**Q.** N=C(N)NCCC[C@H](N)C(=O)O [arginine] was tested. Which “activation” value did it give?
**A.** do not activate

**Q.** For C[C@@H](O)[C@H](N)C(=O)O [threonine], which “activation” value is on record?
**A.** do not activate

**Q.** For CC[C@H](C)[C@H](N)C(=O)O [isoleucine], which “activation” value is on record?
**A.** do not activate

**Q.** With CC(C)[C@H](N)C(=O)O [valine] as the compound, how does the “activation” value read?
**A.** do not activate

**Q.** With NC(=O)CC[C@H](N)C(=O)O [glutamine] as the compound, how does the “activation” value read?
**A.** do not activate

**Q.** Which “activation” value does the source give for N[C@@H](CSSC[C@H](N)C(=O)O)C(=O)O [cystine] here?
**A.** do not activate

**Q.** How did the “activation” value turn out when NCCCC[C@H](N)C(=O)O [lysine] was run?
**A.** do not activate

**Q.** With O=C(O)[C@@H]1C[C@@H](O)CN1 [hydroxyproline] as the compound, how does the “activation” value read?
**A.** do not activate

**Q.** NCCS(=O)(=O)O [taurine] was tested. Which “activation” value did it give?
**A.** do not activate

— patent publication US20150282506A1, “FLAVOUR ADDITIVES” (MARS, INCORPORATED, priority 2012, published 2015)
